Patent publication US20080009418A1, “Selective Inhibitors” (Alchemia LTD., priority 2004, published 2008)

Key:
Human δ-opioid (DOP) = molecular target: T1, Human δ-opioid (DOP) (Homo sapiens, UniProt P41143); test: Radioligand binding, human δ-opioid (DOP) membranes, FlashPlate, [3H]-Bremazocine; settings: compound at 10 μM; for A1 radioligand binding inhibition: human δ-opioid (DOP) membranes
T1 construct: purchased Perkin Elmer Biosignal
Summary of the method: (§1)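 Cloned human receptor membranes were coated onto FlashPlate wells and incubated with radioligand and compound (added from a 0.5 mM DMSO daughter plate) for 1 hour at room temperature in the dark. Scintillation counting gave percent inhibition, with DMSO defining total and reference ligand defining non-specific binding.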

Human κ-Opioid (KOP) = molecular target: T2, Human κ-Opioid (KOP) (Homo sapiens, UniProt P41145); test: Radioligand binding, human κ-opioid (KOP) membranes, filtration, [3H]-Diprenorphine; settings: compound at 10 μM; for A2 radioligand binding inhibition: human κ-opioid (KOP) membranes
T2 construct: purchased Perkin Elmer Biosignal
Summary of the method: (§2)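 Filtration binding on cloned human receptor membranes (1 Unit/well), [125I]-Substance P for NK1 and [3H]-Diprenorphine for KOP, 1 h at room temperature. Filters PEI-presoaked, washed with cold 50 mM Tris-HCl pH 7.4, counted by scintillation; percent inhibition calculated, reference ligand defining non-specific binding.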

Human Melanocortin (MC3) = molecular target: T3, Human Melanocortin (MC3) (Homo sapiens, UniProt P41968); test: Radioligand binding, human melanocortin MC3 membranes, FlashPlate, [125I]-NDP-αMSH; settings: compound at 10 μM; for A3 radioligand binding inhibition: human melanocortin MC3 membranes
T3 construct: purchased Perkin Elmer Biosignal
Summary of the method: as §1

Human Melanocortin (MC4) = molecular target: T4, Human Melanocortin (MC4) (Homo sapiens, UniProt P32245); test: Radioligand binding, human melanocortin MC4 membranes, FlashPlate, [125I]-NDP-αMSH; settings: compound at 10 μM; for A4 radioligand binding inhibition: human melanocortin MC4 membranes
T4 construct: purchased Perkin Elmer Biosignal
Summary of the method: as §1

Human melanocortin (MC5) = molecular target: T5, Human melanocortin (MC5) (Homo sapiens, UniProt P33032); test: Radioligand binding, human melanocortin MC5 membranes, FlashPlate, [125I]-NDP-αMSH; settings: compound at 10 μM; for A5 radioligand binding inhibition: human melanocortin MC5 membranes
T5 construct: purchased Perkin Elmer Biosignal
Summary of the method: as §1

[1] = molecular target: T6, Human melanin-concentrating hormone (MCH1) (Homo sapiens, UniProt Q99705); test: Radioligand binding, human melanin-concentrating hormone MCH1 membranes, FlashPlate, [125I]-S36057; settings: compound at 10 μM; for A6 radioligand binding inhibition: human MCH1 membranes
T6 construct: purchased Perkin Elmer Biosignal
Summary of the method: as §1

Human μ-opioid (MOP) = molecular target: T7, Human μ-opioid (MOP) (Homo sapiens, UniProt P35372); test: Radioligand binding, human μ-opioid (MOP) membranes, FlashPlate, [3H]-Naloxone; settings: compound at 10 μM; for A7 radioligand binding inhibition: human μ-opioid (MOP) membranes
T7 construct: purchased Perkin Elmer Biosignal
Summary of the method: as §1

Human neurokinin (NK1) = molecular target: T8, Human neurokinin (NK1) (Homo sapiens, UniProt P25103); test: Radioligand binding, human neurokinin NK1 membranes, filtration, [125I]-Substance P; settings: compound at 10 μM; for A8 radioligand binding inhibition: human neurokinin NK1 membranes
T8 construct: purchased Perkin Elmer Biosignal
Summary of the method: as §2

[2] = molecular target: T9, Human neuropeptide Y (NPY-Y1) (Homo sapiens, UniProt P25929); test: Radioligand binding, human neuropeptide Y NPY-Y1 membranes, FlashPlate, [125I]-PYY; settings: compound at 10 μM; for A9 radioligand binding inhibition: human NPY-Y1 membranes
T9 construct: purchased Perkin Elmer Biosignal
T9 sequence (P25929 1-384): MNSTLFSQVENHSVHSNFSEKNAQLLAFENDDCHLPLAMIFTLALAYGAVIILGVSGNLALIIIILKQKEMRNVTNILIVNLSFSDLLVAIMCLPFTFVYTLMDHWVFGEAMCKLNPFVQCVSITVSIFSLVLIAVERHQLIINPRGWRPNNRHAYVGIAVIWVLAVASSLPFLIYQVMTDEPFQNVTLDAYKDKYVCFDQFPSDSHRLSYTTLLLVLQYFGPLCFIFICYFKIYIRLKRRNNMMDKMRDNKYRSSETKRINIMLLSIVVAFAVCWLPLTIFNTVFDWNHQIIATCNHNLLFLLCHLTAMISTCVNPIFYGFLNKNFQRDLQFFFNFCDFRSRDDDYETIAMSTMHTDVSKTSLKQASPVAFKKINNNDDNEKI
Summary of the method: as §1

Human opioid (ORL1) = molecular target: T10, Human opioid (ORL1) (Homo sapiens, UniProt P41146); test: Radioligand binding, human opioid ORL1 membranes, FlashPlate, [125I]-Nociceptin; settings: compound at 10 μM; for A10 radioligand binding inhibition: human ORL1 membranes
T10 construct: purchased Perkin Elmer Biosignal
Summary of the method: as §1

Mouse urotensin (mUR2) = molecular target: T11, Mouse urotensin (mUR2) (Mus musculus, UniProt Q8VIH9); test: Radioligand binding, mouse urotensin mUR2 membranes, FlashPlate, [125I]-Urotensin II; settings: compound at 10 μM; for A11 radioligand binding inhibition: mouse urotensin mUR2 membranes
T11 construct: purchased Perkin Elmer Biosignal
T11 sequence (Q8VIH9 1-385): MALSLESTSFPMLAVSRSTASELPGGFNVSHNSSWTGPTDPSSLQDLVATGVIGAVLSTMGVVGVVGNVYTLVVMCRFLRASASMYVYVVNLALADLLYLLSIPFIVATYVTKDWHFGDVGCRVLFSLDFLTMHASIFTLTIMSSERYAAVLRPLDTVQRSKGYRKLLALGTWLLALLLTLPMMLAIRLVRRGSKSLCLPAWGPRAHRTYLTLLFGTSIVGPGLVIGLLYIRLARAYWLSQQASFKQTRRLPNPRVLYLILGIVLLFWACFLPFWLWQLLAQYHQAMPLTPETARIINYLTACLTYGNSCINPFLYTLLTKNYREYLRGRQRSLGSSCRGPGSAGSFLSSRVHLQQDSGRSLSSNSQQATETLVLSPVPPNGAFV
Summary of the method: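 Cloned mouse urotensin (mUR2) receptor membranes from Perkin Elmer Biosignal were immobilized in FlashPlate microplates using a proprietary coating. Each well got 19.5 μl buffer, then 0.5 μl of DMSO, reference ligand, or compound. Adding 5 μl of [125I]-Urotensin II, diluted to 5× final concentration in binding buffer, started binding. Plates were sealed with TopSeal-A and incubated 1 hour at room temperature in the dark. Wells were counted for 30 seconds each on a TopCount after a 60-second delay, and percentage inhibition was calculated.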

T8 sequence (P25103 whole entry): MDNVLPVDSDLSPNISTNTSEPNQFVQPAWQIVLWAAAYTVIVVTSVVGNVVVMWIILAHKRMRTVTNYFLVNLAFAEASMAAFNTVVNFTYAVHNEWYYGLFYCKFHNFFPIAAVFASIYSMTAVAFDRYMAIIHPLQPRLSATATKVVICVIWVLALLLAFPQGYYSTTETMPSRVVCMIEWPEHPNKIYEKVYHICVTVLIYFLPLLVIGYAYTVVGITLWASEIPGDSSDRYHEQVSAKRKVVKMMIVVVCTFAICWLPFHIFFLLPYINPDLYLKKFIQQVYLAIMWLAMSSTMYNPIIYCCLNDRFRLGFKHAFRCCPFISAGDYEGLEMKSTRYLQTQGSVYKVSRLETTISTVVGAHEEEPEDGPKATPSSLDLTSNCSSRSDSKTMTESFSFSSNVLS
T5 sequence (P33032 whole entry): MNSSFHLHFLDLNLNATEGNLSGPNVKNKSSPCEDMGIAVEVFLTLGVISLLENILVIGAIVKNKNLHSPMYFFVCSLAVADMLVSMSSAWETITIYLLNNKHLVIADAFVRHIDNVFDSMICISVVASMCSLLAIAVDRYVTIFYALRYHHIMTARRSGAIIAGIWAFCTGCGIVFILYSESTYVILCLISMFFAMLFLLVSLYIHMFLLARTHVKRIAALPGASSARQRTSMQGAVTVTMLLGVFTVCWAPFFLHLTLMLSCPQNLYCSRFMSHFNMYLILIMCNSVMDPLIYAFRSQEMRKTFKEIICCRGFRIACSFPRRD
T1 sequence (P41143 whole entry): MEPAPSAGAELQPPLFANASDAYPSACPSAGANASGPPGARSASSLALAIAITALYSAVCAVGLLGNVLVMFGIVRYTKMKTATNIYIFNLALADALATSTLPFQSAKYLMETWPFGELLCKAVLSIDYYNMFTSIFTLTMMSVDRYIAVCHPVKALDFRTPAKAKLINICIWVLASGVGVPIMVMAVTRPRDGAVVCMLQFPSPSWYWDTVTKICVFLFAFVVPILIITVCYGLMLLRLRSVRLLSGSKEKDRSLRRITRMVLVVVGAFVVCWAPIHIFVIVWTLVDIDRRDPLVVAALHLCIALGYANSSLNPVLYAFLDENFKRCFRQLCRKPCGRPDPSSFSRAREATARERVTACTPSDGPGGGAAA
T2 sequence (P41145 whole entry): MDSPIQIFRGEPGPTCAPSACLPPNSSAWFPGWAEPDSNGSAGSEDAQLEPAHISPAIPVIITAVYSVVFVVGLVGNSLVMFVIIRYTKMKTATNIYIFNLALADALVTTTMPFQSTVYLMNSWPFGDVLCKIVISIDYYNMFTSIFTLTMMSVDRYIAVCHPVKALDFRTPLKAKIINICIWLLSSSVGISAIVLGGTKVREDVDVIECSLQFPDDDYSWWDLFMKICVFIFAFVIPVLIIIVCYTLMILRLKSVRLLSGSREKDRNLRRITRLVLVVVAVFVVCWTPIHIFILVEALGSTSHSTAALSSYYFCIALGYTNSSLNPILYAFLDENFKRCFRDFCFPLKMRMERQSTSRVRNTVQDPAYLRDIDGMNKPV
T7 sequence (P35372 whole entry): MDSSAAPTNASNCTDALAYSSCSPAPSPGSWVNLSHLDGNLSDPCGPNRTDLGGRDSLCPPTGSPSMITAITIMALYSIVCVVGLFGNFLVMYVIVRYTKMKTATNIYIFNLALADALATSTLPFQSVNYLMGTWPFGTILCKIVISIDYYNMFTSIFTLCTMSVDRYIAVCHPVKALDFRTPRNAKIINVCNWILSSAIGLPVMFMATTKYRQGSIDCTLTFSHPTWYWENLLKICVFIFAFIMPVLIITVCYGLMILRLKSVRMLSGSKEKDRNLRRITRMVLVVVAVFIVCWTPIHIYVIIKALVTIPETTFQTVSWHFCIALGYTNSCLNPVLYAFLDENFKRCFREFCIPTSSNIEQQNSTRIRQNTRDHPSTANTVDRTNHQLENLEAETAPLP
T10 sequence (P41146 whole entry): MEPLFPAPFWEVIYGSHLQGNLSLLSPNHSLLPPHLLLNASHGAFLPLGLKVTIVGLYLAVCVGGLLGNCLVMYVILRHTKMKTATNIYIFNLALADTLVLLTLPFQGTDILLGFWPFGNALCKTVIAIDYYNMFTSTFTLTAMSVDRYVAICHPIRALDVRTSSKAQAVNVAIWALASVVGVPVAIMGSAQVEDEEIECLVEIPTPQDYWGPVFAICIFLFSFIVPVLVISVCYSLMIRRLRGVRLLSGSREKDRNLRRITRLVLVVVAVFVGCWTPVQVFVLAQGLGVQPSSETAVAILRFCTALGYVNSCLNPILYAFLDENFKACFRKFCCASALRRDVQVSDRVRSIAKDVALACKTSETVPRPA
T6 sequence (Q99705 whole entry): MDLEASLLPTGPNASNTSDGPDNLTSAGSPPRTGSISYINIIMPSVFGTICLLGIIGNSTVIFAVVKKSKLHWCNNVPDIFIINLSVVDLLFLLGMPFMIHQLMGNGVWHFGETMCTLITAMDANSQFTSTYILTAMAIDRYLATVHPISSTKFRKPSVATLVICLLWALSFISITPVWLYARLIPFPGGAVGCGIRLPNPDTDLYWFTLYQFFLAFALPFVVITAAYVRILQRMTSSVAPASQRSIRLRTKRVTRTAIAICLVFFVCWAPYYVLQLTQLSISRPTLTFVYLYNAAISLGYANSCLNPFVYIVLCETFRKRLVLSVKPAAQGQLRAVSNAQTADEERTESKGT
T4 sequence (P32245 whole entry): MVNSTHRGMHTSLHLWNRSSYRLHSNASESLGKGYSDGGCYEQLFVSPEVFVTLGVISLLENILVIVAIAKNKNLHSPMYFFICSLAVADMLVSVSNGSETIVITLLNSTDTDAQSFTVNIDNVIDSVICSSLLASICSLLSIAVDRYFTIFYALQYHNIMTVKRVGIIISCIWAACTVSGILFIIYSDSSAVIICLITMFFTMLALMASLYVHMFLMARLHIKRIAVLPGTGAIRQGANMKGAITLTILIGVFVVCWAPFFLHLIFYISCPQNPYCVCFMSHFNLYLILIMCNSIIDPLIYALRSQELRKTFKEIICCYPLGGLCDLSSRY
T3 sequence (P41968 whole entry): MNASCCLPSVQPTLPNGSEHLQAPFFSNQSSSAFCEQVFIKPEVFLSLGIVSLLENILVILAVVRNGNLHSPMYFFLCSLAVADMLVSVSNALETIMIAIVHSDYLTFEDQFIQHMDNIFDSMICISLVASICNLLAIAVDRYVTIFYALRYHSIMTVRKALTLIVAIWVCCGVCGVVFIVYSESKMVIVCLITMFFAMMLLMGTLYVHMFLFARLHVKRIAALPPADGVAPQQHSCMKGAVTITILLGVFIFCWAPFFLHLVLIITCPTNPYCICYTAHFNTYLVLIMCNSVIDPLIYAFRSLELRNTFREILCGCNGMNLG

SMILES | A1: inhibition of radioligand binding, human δ-opioid (DOP) (Human δ-opioid (DOP); [3H]-Bremazocine) | A2: inhibition of radioligand binding, human κ-opioid (KOP) (Human κ-Opioid (KOP); [3H]-Diprenorphine) | A3: inhibition of radioligand binding, human melanocortin (MC3) (Human Melanocortin (MC3); [125I]-NDP-αMSH) | A4: inhibition of radioligand binding, human melanocortin (MC4) (Human Melanocortin (MC4); [125I]-NDP-αMSH) | A5: inhibition of radioligand binding, human melanocortin (MC5) (Human melanocortin (MC5); [125I]-NDP-αMSH) | A6: inhibition of radioligand binding, human melanin-concentrating hormone (MCH1) ([1]; [125I]-S36057) | A7: inhibition of radioligand binding, human μ-opioid (MOP) (Human μ-opioid (MOP); [3H]-Naloxone) | A8: inhibition of radioligand binding, human neurokinin (NK1) (Human neurokinin (NK1); [125I]-Substance P) | A9: inhibition of radioligand binding, human neuropeptide Y (NPY-Y1) ([2]; [125I]-PYY) | A10: inhibition of radioligand binding, human opioid (ORL1) (Human opioid (ORL1); [125I]-Nociceptin) | A11: inhibition of radioligand binding, mouse urotensin (mUR2) (Mouse urotensin (mUR2); [125I]-Urotensin II) | A1 radioligand binding inhibition (Human δ-opioid (DOP)) | A2 radioligand binding inhibition (Human κ-Opioid (KOP)) | A3 radioligand binding inhibition (Human Melanocortin (MC3)) | A4 radioligand binding inhibition (Human Melanocortin (MC4)) | A5 radioligand binding inhibition (Human melanocortin (MC5)) | A6 radioligand binding inhibition [1] | A7 radioligand binding inhibition (Human μ-opioid (MOP)) | A8 radioligand binding inhibition (Human neurokinin (NK1)) | A9 radioligand binding inhibition [2] | further results
NCC(=O)NC1O[C@H](CO)[C@@H](O)[C@H](OCc2ccccc2)[C@H]1NC(=O)c1ccccc1 (stereo partly shown) [compound 360] | − (“−” indicates less than 50% inhibition at 10 μM) | − (“−” indicates less than 50% inhibition at 10 μM) | − (“−” indicates less than 50% inhibition at 10 μM) | + (“+” indicates greater than 50% inhibition at 10 μM) | − (“−” indicates less than 50% inhibition at 10 μM) | − (“−” indicates less than 50% inhibition at 10 μM) | − (“−” indicates less than 50% inhibition at 10 μM) | − (“−” indicates less than 50% inhibition at 10 μM) | − (“−” indicates less than 50% inhibition at 10 μM) | − (“−” indicates less than 50% inhibition at 10 μM) | − (“−” indicates less than 50% inhibition at 10 μM) | – | – | – | – | – | – | – | – | – | –
COC[C@H]1OC(OCc2ccc(-c3ccccc3)cc2)[C@H](NC(=O)CCNC(=N)N)[C@@H](OCc2ccccc2)[C@@H]1O (stereo partly shown) [compound 7] | – | – | – | – | – | – | – | – | – | – | – | − (“−” indicates less than 50% inhibition at 10 μM) | − (“−” indicates less than 50% inhibition at 10 μM) | − (“−” indicates less than 50% inhibition at 10 μM) | − (“−” indicates less than 50% inhibition at 10 μM) | − (“−” indicates less than 50% inhibition at 10 μM) | + (“+” indicates greater than 50% inhibition at 10 μM) | + (“+” indicates greater than 50% inhibition at 10 μM) | + (“+” indicates greater than 50% inhibition at 10 μM) | − (“−” indicates less than 50% inhibition at 10 μM) | A10 radioligand binding inhibition (Human opioid (ORL1)): − (“−” indicates less than 50% inhibition at 10 μM); A11 radioligand binding inhibition (Mouse urotensin (mUR2)): − (“−” indicates less than 50% inhibition at 10 μM)
CSC1OC(COCc2ccc(-c3ccccc3)cc2)C(O)C(OCc2ccc3ccccc3c2)C1NC(=O)CNC(=N)N (stereo not shown) [compound 312] | − (“−” indicates less than 50% inhibition at 10 μM) | − (“−” indicates less than 50% inhibition at 10 μM) | + (“+” indicates greater than 50% inhibition at 10 μM) | + (“+” indicates greater than 50% inhibition at 10 μM) | + (“+” indicates greater than 50% inhibition at 10 μM) | − (“−” indicates less than 50% inhibition at 10 μM) | − (“−” indicates less than 50% inhibition at 10 μM) | + (“+” indicates greater than 50% inhibition at 10 μM) | − (“−” indicates less than 50% inhibition at 10 μM) | − (“−” indicates less than 50% inhibition at 10 μM) | − (“−” indicates less than 50% inhibition at 10 μM) | – | – | – | – | – | – | – | – | – | –
COC[C@H]1OC(OCCc2ccccc2)[C@H](NC(=O)CNC(=N)N)[C@@H](OCc2ccc3ccccc3c2)[C@@H]1O (stereo partly shown) [compound 44] | – | – | – | – | – | – | – | – | – | – | – | − (“−” indicates less than 50% inhibition at 10 μM) | − (“−” indicates less than 50% inhibition at 10 μM) | − (“−” indicates less than 50% inhibition at 10 μM) | + (“+” indicates greater than 50% inhibition at 10 μM) | + (“+” indicates greater than 50% inhibition at 10 μM) | − (“−” indicates less than 50% inhibition at 10 μM) | − (“−” indicates less than 50% inhibition at 10 μM) | − (“−” indicates less than 50% inhibition at 10 μM) | − (“−” indicates less than 50% inhibition at 10 μM) | A10 radioligand binding inhibition (Human opioid (ORL1)): − (“−” indicates less than 50% inhibition at 10 μM); A11 radioligand binding inhibition (Mouse urotensin (mUR2)): − (“−” indicates less than 50% inhibition at 10 μM)
CO[C@H]1[C@H](O)[C@@H](COCc2ccc(-c3ccccc3)cc2)OC(OCc2cccc(O)c2)[C@@H]1NC(=O)CCNC(=N)N (stereo partly shown) [compound 163] | – | – | – | – | – | – | – | – | – | – | – | – | – | – | – | – | – | – | – | – | A1 radioligand binding, percentage inhibition (Human δ-opioid (DOP); [3H]-Bremazocine): − (“−” indicates less than 50% inhibition at 10 μM); A2 radioligand binding, percentage inhibition (Human κ-Opioid (KOP); [3H]-Diprenorphine): − (“−” indicates less than 50% inhibition at 10 μM); A3 radioligand binding, percentage inhibition (Human Melanocortin (MC3); [125I]-NDP-αMSH): + (“+” indicates greater than 50% inhibition at 10 μM); A4 radioligand binding, percentage inhibition (Human Melanocortin (MC4); [125I]-NDP-αMSH): + (“+” indicates greater than 50% inhibition at 10 μM); A5 radioligand binding, percentage inhibition (Human melanocortin (MC5); [125I]-NDP-αMSH): + (“+” indicates greater than 50% inhibition at 10 μM); A6 radioligand binding, percentage inhibition ([1]; [125I]-S36057): − (“−” indicates less than 50% inhibition at 10 μM); A7 radioligand binding, percentage inhibition (Human μ-opioid (MOP); [3H]-Naloxone): − (“−” indicates less than 50% inhibition at 10 μM); A8 radioligand binding, percentage inhibition (Human neurokinin (NK1); [125I]-Substance P): + (“+” indicates greater than 50% inhibition at 10 μM); A9 radioligand binding, percentage inhibition ([2]; [125I]-PYY): − (“−” indicates less than 50% inhibition at 10 μM); A10 radioligand binding, percentage inhibition (Human opioid (ORL1); [125I]-Nociceptin): − (“−” indicates less than 50% inhibition at 10 μM); A11 radioligand binding, percentage inhibition (Mouse urotensin (mUR2); [125I]-Urotensin II): − (“−” indicates less than 50% inhibition at 10 μM)
